≈ marks a conversion by molar mass, not a printed value. Calls of active or inactive are those of the source. The rule behind the calls is not given here.
Tests used:
[1] = system: Escherichia coli; test: Binding affinity to Escherichia coli K88 TMK at 128 uM by BLI assay
[2] = system: Escherichia coli; test: Binding affinity to Escherichia coli K88 TraV at 128 uM by BLI assay
[3] = system: Enterococcus faecalis; test: Antibacterial activity against Enterococcus faecalis 29212 incubated for 12 to 18 hrs by microbroth dilution method; assay type: functional; conditions: time 12-18 hrs
[4] = system: Lactococcus lactis; test: Antibacterial activity against Lactococcus lactis NZ9000 incubated for 12 to 18 hrs by microbroth dilution method; assay type: functional; conditions: time 12-18 hrs
[5] = system: Lacticaseibacillus rhamnosus; test: Antibacterial activity against Lactobacillus rhamnosus 7469 incubated for 12 to 18 hrs by microbroth dilution method; assay type: functional; conditions: time 12-18 hrs
[6] = Antibacterial activity against Salmonella choleraesuis 21493 incubated for 12 to 18 hrs by microbroth dilution method; assay type: functional, Salmonella enterica subsp. enterica serovar Choleraesuis; conditions: Salmonella enterica, time 12-18 hrs
[7] = Cytotoxicity against porcine IPEC-J2 cells assessed as cell viability at 128 uM incubated for 4 hrs by MTT assay relative to control; assay type: toxicity, cell-based, Sus scrofa; conditions: pig, read-out: Activity
[8] = Cytotoxicity against mouse RAW264.7 cells assessed as cell viability at 128 uM incubated for 4 hrs by MTT assay relative to control; assay type: toxicity, cell-based; conditions: read-out: Activity
[9] = system: Lactiplantibacillus plantarum; test: Antibacterial activity against Lactobacillus plantarum 8014 incubated for 12 to 18 hrs by microbroth dilution method; assay type: functional; conditions: time 12-18 hrs
[10] = Hemolytic activity against human red blood cells at 2 to 128 uM relative to control; assay type: toxicity, cell-based, Erythrocyte; conditions: dose 2-128 µM, read-out: Activity
[11] = Relative hydrophobic moment of compound; assay type: physicochemical
[12] = Hydrophobicity of compound; assay type: physicochemical
[13] = system: Escherichia coli; test: Antibacterial activity against Escherichia coli 078 incubated for 12 to 18 hrs by microbroth dilution method; assay type: functional; conditions: time 12-18 hrs
[14] = system: Salmonella typhimurium; test: Antibacterial activity against Salmonella typhimurium 7731 incubated for 12 to 18 hrs by microbroth dilution method; assay type: functional, Salmonella enterica subsp. enterica serovar Typhimurium; conditions: Salmonella enterica, time 12-18 hrs
[15] = system: Staphylococcus aureus; test: Antibacterial activity against Staphylococcus aureus 29213 incubated for 12 to 18 hrs by microbroth dilution method; assay type: functional; conditions: time 12-18 hrs
[16] = system: Escherichia coli; test: Antibacterial activity against Escherichia coli K88 incubated for 12 to 18 hrs by microbroth dilution method; assay type: functional; conditions: time 12-18 hrs
[17] = system: Staphylococcus epidermidis; test: Antibacterial activity against Staphylococcus epidermidis 12228 incubated for 12 to 18 hrs by microbroth dilution method; assay type: functional; conditions: time 12-18 hrs
[18] = system: Escherichia coli; test: Antibacterial activity against Escherichia coli K99 incubated for 12 to 18 hrs by microbroth dilution method; assay type: functional; conditions: time 12-18 hrs
[19] = system: Staphylococcus aureus; test: Antibacterial activity against Staphylococcus aureus 25923 incubated for 12 to 18 hrs by microbroth dilution method; assay type: functional; conditions: time 12-18 hrs
[20] = system: Escherichia coli; test: Antibacterial activity against Escherichia coli 1515 incubated for 12 to 18 hrs by microbroth dilution method; assay type: functional; conditions: time 12-18 hrs
[21] = system: Staphylococcus aureus; test: Antibacterial activity against methicillin-resistant Staphylococcus aureus 43300 incubated for 12 to 18 hrs by microbroth dilution method; assay type: functional; conditions: time 12-18 hrs
[22] = system: Pseudomonas aeruginosa; test: Antibacterial activity against Pseudomonas aeruginosa 27853 incubated for 12 to 18 hrs by microbroth dilution method; assay type: functional; conditions: time 12-18 hrs
[23] = system: Pseudomonas aeruginosa; test: Antibacterial activity against Pseudomonas aeruginosa PAO1 incubated for 12 to 18 hrs by microbroth dilution method; assay type: functional; conditions: time 12-18 hrs

Row | Compound | MIC [3] | MIC [4] | MIC [5] | MIC [6] | viability at 4 h, 128 µM [7] | viability at 4 h, 128 µM [8] | MIC [9] | hemolysis at up to 128 µM [10] | Activity [11] | Activity [12] | MIC [13] | MIC [14] | MIC [15] | MIC [16] | MIC [17] | MIC [18] | MIC [19] | MIC [20] | MIC [21] | MIC [22] | also measured
1 | CC[C@@H](C)[C@H](NC(=O)CNC(=O)[C@@H]1CCCN1C(=O)[C@H](CCCCN)NC(=O)[C@H](Cc1c[nH]c2ccccc12)NC(=O)[C@@H](NC(=O)[C@H](CCCCN)NC(=O)[C@H](CCCCN)NC(=O)[C@H](Cc1c[nH]c2ccccc12)NC(=O)[C@H](Cc1ccc(O)cc1)NC(=O)[C@H](CCCCN)NC(=O)[C@@H](NC(=O)[C@H](CC(C)C)NC(=O)[C@H](CC(N)=O)NC(=O)CNC(=O)[C@H](CO)NC(=O)CCCC[C@@H]1SC[C@@H]2NC(=O)N[C@@H]21)[C@@H](C)O)[C@@H](C)CC)C(=O)N[C@@H](CCCCN)C(=O)N[C@@H](CCCCN)C(=O)N[C@@H](Cc1c[nH]c2ccccc12)C(=O)N[C@H](C(=O)N[C@@H](CCCCN)C(=O)O)[C@H](C)CC |  |  |  |  |  |  |  |  |  |  |  |  |  |  |  |  |  |  |  |  | Activity [1]: Active; Activity [2]: Active
2 | CC[C@H](C)[C@H](NC(=O)CN)C(=O)NCC(=O)N[C@@H](C)C(=O)N[C@H](C(=O)N[C@@H](CC(C)C)C(=O)N[C@@H](CCCCN)C(=O)N[C@H](C(=O)N[C@@H](CC(C)C)C(=O)N[C@H](C(=O)N[C@H](C(=O)NCC(=O)N[C@@H](CC(C)C)C(=O)N1CCC[C@H]1C(=O)N[C@@H](C)C(=O)N[C@@H](CC(C)C)C(=O)N[C@H](C(=O)N[C@@H](CO)C(=O)N[C@@H](Cc1c[nH]c2ccccc12)C(=O)N[C@H](C(=O)N[C@@H](CCCCN)C(=O)N[C@@H](CCCNC(=N)N)C(=O)N[C@@H](CCCCN)C(=O)N[C@@H](CCCNC(=N)N)C(=O)N[C@@H](CCC(N)=O)C(=O)N[C@@H](CCC(N)=O)C(N)=O)[C@@H](C)CC)[C@@H](C)CC)[C@@H](C)O)[C@@H](C)O)C(C)C)C(C)C [MELITTIN] | 2 µM (≈ 5.69 µg/mL) | 2 µM (≈ 5.69 µg/mL) | 2 µM (≈ 5.69 µg/mL) | 4 µM (≈ 11.4 µg/mL) | > 80% | > 80% | 2 µM (≈ 5.69 µg/mL) | < 5% |  |  |  |  |  |  |  |  |  |  |  |  | 
3 | H-CFASAPRWKKIWKPGIKKWIK-OH [listing 1 of 2 here] |  |  |  |  | > 80% | > 80% |  | < 5% | 0.562 | 0.502 |  |  |  |  |  |  |  |  |  |  | 
4 | H-CFASAPRWKKIWKPGIKKWIK-OH [listing 2 of 2 here] | 128 µM | 128 µM | 128 µM | 16 µM |  |  | 128 µM |  |  |  | 16 µM | 16 µM | 128 µM | 8 µM | 128 µM | 16 µM | 128 µM | 8 µM | 128 µM | 32 µM | MIC [23]: 8 µM
5 | H-EMPGYNSWKKIWKPGIKKWIK-OH | 128 µM | 128 µM | 128 µM | 64 µM | > 80% | > 80% | 128 µM | < 5% | 0.475 | 0.408 | 128 µM | 64 µM | 128 µM | 32 µM | 128 µM | 32 µM | 128 µM | 64 µM | 128 µM | 64 µM | MIC [23]: 32 µM

Reference: ChEMBL document CHEMBL6103615, “Thymidylate Kinase-Targeted Antimicrobial Peptides via Phage Display: A Novel Strategy against Gram-Negative Bacteria” (J Med Chem, 2025)
